From patent US20080176882A1, “SALTS OF 3-(3-AMINO-2-(R)-HYDROXY-PROPYL)-1-(4-FLUORO-PHENYL)-8-(8-METHYL-NAPHTHALEN-1-YLMETHYL)-1,3,8-TRIAZA-SPIRO[4.5]DECAN-4-ONE” (priority 2006, published 2008)
Counter-ions that a name gives are not always drawn.

Test: DVS (Differential Vapor Sorption) measurements of hygroscopicity
Format: physicochemical
Conditions: salt forms of the compound of formula (Is)
Excerpt: In an embodiment, the present invention is directed to a hydrochloride salt of the compound of formula (Is). In another embodiment of the present invention, the hydrochloride salt of the compound of formula (Is) is mono-hydrochloride or di-hydrochloride salt of the compound of formula (Is). In another embodiment of the present invention, the mono-hydrochloride and di-hydrochloride salts of the compound of formula (Is) are crystalline. DVS measurements completed on the mono-hydrochloride and di-hydrochloride salts of the compound of formula (Is) indicate that both of these salt forms are hygroscopic.

For `Cc1cccc2cccc(CN3CCC4(CC3)C(=O)N(C[C@H](O)CN)CN4c3ccc(F)cc3)c12` [mono-hydrochloride, 3-(3-amino-2-(R)-hydroxy-propyl)-1-(4-fluoro-phenyl)-8-(8-methyl-naphthalen-1-ylmethyl)-1,3,8-triaza-spiro[4.5]decan-4-one], the “hygroscopicity by DVS measurements” value was “hygroscopic”.
